Marks after values point to notes of the source that are not given here.
Columns and labels:
[1] = tested on: patients with grade I or II hip osteoarthritis; test: Treadmill walking test, total pain-free distance; format: in vivo, human; details: 3 km/hour, 10% incline
Method: The clinical end-points (WOMAC score, Karnofsky Performance Scale Index and treadmill walking performance) were evaluated for the single agents and for the combination of the two vs. a placebo. […] 100 patients with grade I or II hip osteoarthritis, confirmed by X-ray analysis, were enrolled in the study. The patients were allowed to self-medicate with NSAIDs during the 8-month trial. […] Group C received a combination of curcumin and Zingiber officinale at the same doses as reported above for the single ingredients. The last group received a corresponding placebo. To ensure clinical homogeneity, the main location of the osteoarthritis in these subjects, and the source of most of their signs and symptoms, was in one or both hips. Primary osteoarthritis in one or both hips was diagnosed by X-ray investigation. The subjects had mild to moderate pain not adequately or completely controlled with anti-inflammatory drugs. They had to be able to perform the treadmill walking test and to understand all the questions in the WOMAC questionnaire. […] On inclusion and after 1 month, 4 months and 8 months treatment, the patient's performance was evaluated with the treadmill test at a speed of 3 km/h and an incline of 10%. The total pain-free distance was recorded. […] Non-parametric observations (e.g. the WOMAC score) were evaluated with analysis of variance (ANOVA with the Bonferroni correction). […]

[2] = cited from earlier work
[3] = tested on: patients with grade I or II hip osteoarthritis; test: WOMAC scores (signs/symptoms of osteoarthritis) in 8-month hip osteoarthritis study; format: in vivo, human
Method: The clinical end-points (WOMAC score, Karnofsky Performance Scale Index and treadmill walking performance) were evaluated for the single agents and for the combination of the two vs. a placebo. […] 100 patients with grade I or II hip osteoarthritis, confirmed by X-ray analysis, were enrolled in the study. The patients were allowed to self-medicate with NSAIDs during the 8-month trial. […] Group C received a combination of curcumin and Zingiber officinale at the same doses as reported above for the single ingredients. The last group received a corresponding placebo. To ensure clinical homogeneity, the main location of the osteoarthritis in these subjects, and the source of most of their signs and symptoms, was in one or both hips. Primary osteoarthritis in one or both hips was diagnosed by X-ray investigation. The subjects had mild to moderate pain not adequately or completely controlled with anti-inflammatory drugs. They had to be able to perform the treadmill walking test and to understand all the questions in the WOMAC questionnaire. The questionnaire developed by the Western Ontario and McMaster Universities was applied to describe and rate the symptoms of OA. The questionnaire produces scores for the various symptoms of OA (WOMAC scores). The status of the OA signs/symptoms was evaluated by the investigator together with the patient on inclusion, and after 1 month, 4 months and 8 months treatment. The variations in the results (i.e. walking distance) were considered parametric. Non-parametric observations (e.g. the WOMAC score) were evaluated with analysis of variance (ANOVA with the Bonferroni correction). Considering the possible intra-individual and inter-individual data variations, at least 40 completing subjects were needed for this type of study (at least 40 subjects who completed the entire follow-up period in each group). This numerical value was established, on the basis of our previous study, with a view to eliminating spontaneous variability and time variations. OA and its related signs/symptoms, even under conditions of relative stability, may have a spontaneous degree of variability associated with periods of improvement. Clinical variations in signs/symptoms, walking distance, oedema and the Karnofsky scale may be due to various clinical and non-clinical (i.e.

[4] = preliminary clinical trials; oral; cited from earlier work
[5] = tested on: patients with grade I or II hip osteoarthritis; test: Karnofsky Performance Scale Index in 8-month hip osteoarthritis study; format: in vivo, human
Method: The clinical end-points (WOMAC score, Karnofsky Performance Scale Index and treadmill walking performance) were evaluated for the single agents and for the combination of the two vs. a placebo. […] 100 patients with grade I or II hip osteoarthritis, confirmed by X-ray analysis, were enrolled in the study. The patients were allowed to self-medicate with NSAIDs during the 8-month trial. […] Group C received a combination of curcumin and Zingiber officinale at the same doses as reported above for the single ingredients. The last group received a corresponding placebo. To ensure clinical homogeneity, the main location of the osteoarthritis in these subjects, and the source of most of their signs and symptoms, was in one or both hips. Primary osteoarthritis in one or both hips was diagnosed by X-ray investigation. The subjects had mild to moderate pain not adequately or completely controlled with anti-inflammatory drugs. They had to be able to perform the treadmill walking test and to understand all the questions in the WOMAC questionnaire. The Karnofsky Performance Scale Index was used to classify the patients in terms of functional impairment. The Karnofsky Performance Scale Index can be used to compare the effectiveness of different treatments and to assess the prognosis in individual patients. The lower the Karnofsky score, the worse the patient's functional impairment. The variations in the results (i.e. walking distance) were considered parametric. Non-parametric observations (e.g. the WOMAC score) were evaluated with analysis of variance (ANOVA with the Bonferroni correction). Considering the possible intra-individual and inter-individual data variations, at least 40 completing subjects were needed for this type of study (at least 40 subjects who completed the entire follow-up period in each group). This numerical value was established, on the basis of our previous study, with a view to eliminating spontaneous variability and time variations. OA and its related signs/symptoms, even under conditions of relative stability, may have a spontaneous degree of variability associated with periods of improvement. Clinical variations in signs/symptoms, walking distance, oedema and the Karnofsky scale may be due to various clinical and non-clinical (i.e.

COc1cc(/C=C/C(=O)CC(=O)/C=C/c2ccc(O)c(OC)c2)ccc1O [Curcumin, curcumin]
Treadmill distance (median), total pain-free distance ([1]; 1 month treatment): 100*
Treadmill distance (median), total pain-free distance ([1]; R = recruitment (baseline)): 77
Solubility in water and fats [2]: poorly soluble
WOMAC Pain mean score ([3]; 1 month treatment): 13
WOMAC Physical functions mean score ([3]; 1 month treatment): 45
WOMAC Stiffness mean score ([3]; 1 month treatment): 5
WOMAC Pain mean score ([3]; R = recruitment (baseline)): 16
WOMAC Physical functions mean score ([3]; R = recruitment (baseline)): 55
WOMAC Stiffness mean score ([3]; R = recruitment (baseline)): 7
WOMAC pain scores, result in words ([3]; after one month's administration, p<0.05): fell significantly
Bioavailability [4]: low bioavailability
Karnofsky scale (median) ([5]; 1 month treatment, curcumin 1000 mg/day and/or Zingiber officinale extract 100 mg/day): 77
Karnofsky scale (median) ([5]; 4 months treatment, curcumin 1000 mg/day and/or Zingiber officinale extract 100 mg/day): 80*
Karnofsky Scale scores, result in words ([5]; 8-month study): significantly improved
Karnofsky scale (median) ([5]; 8 months treatment, curcumin 1000 mg/day and/or Zingiber officinale extract 100 mg/day): 81*
Karnofsky scale (median) ([5]; Inclusion (baseline), hip osteoarthritis patients): 73
